This note sets out measurements from PMC9249674, “A small-molecule Skp1 inhibitor elicits cell death by p53-dependent mechanism” (iScience, 2022).

Where two headings read alike, the source gives them in different places.

One experiment relates to Skp1-ΔF-box complex. Description: LC-MS/MS analysis of in vitro binding. To be noted: overnight incubation.
In experiment [1] the test system is A549 cells. Description: Cell viability assay (Cell-Titer GLO). To be noted: for EC50: Homo sapiens. Type of experiment: cell-based, human. The protocol: The media was according to culture conditions of each individual cell line (mentioned above). After 12 hrs, compounds were added in a total volume of 5 μL of media (two-fold diluted) to each well with final concentrations from 5 nM to 30 μM. The measurements were conducted 48 hrs after seeding of the cells. Then, 25 μL of Cell-Titer GLO reagent (Promega) was added, and luminescence was measured on an EnSpire multimode plate reader (PerkinElmer), according to the manufacturer’s instructions. The estimated in vitro half-maximal inhibitory concentration (EC50) values were calculated using GraphPad Prism® v6.0 (San Diego, CA) software. The cell viability for A549 cells was also performed for 72- and 96-hrs by using the same experimental conditions as described above.

Experiment [2] concerns the target T1, ΔSkp1^1−140 (Homo sapiens, UniProt P63208).
T1 construct: pETDuet-Skp1(1-140); His6; made in house; host or cells: Escherichia coli BL21 (DE3)
Description: SPRi assay. The format is binding.
Description: Freshly deposited gold coated standard SPRi chips/slides (Plexera, LLC) were cleaned, and compound(s) at 10 mM concentration in 100% DMSO were spotted on the chips using a micropipette. After this, the slides were left for complete evaporation of DMSO (under vacuum) at room temperature for 2 hrs. […] The slides were subsequently washed with DMSO, ethanol, and finally with distilled water for 15 minutes (ultrasonically), respectively, to remove non-covalently bound compounds. After drying with nitrogen, the slides were assembled with flow cell and then mounted on SPRi instrument for measurement, or stored at 4°C to be used for later experiments.
All the experiments were carried out using the PlexArray® HT system (Plexera, LLC), which is based on surface plasmon resonance imaging. Oval regions of interests (ROIs) were set as 9 pixels × 7 pixels area in imaging area. ROIs of vehicle (DMSO) were used as controls for measurement of specific signals. […] A 1:3 mixture of glycine. HCL (pH 4.2) and 0.5% (v/v) SDS, respectively, was used to regenerate the surface and remove bound proteins from the small molecules enabling the sensor chip to be reused for additional analyte injections.
The Tris buffer (10 mM Tris-HCl pH 8.0, 100 mM NaCl), without any reducing agent, was used as both analyte and running buffer. […]

Experiment [3] deals with T2, Skp1 interaction with Skp2 (Homo sapiens, UniProt P63208).
T2 construct: host or cells: HEK293
As to the kind of experiment: Cell-based FRET assay in HEK293 cells. To be noted: 4 hrs, increasing concentrations.

Experiment [4] addresses T3, Skp1 interaction with NIPA (Homo sapiens, UniProt P63208).
T3 construct: host or cells: HEK293
Description: Cell-based FRET assay in HEK293 cells. To be noted: 4 hrs, increasing concentrations.

In experiment [5] the test system is A549 cells. Description: Flow cytometric analysis of cell cycle. The format is cell-based, human. The settings on record: 0.5 μM, asynchronized and synchronized A549 cells. The procedure:
Both asynchronous and synchronous cells were analyzed by flow cytometry with DNA staining to determine the total amount of DNA. For asynchronous analysis, A549 cells were seeded into six-well plates at a density of 6 × 10^5 cells/well. After 14 to 16 hrs of seeding, the cells were treated with indicated concentrations of Z0933M for 24 hrs. Then, the cells were harvested, washed twice with cold PBS, and fixed in cold 70% ethanol on ice (around 4°C) for 4 hrs. Next, the cells were washed twice with cold PBS, resuspended with cold PBS containing […] RnaseA (Sigma), and incubated for 30 min at 37°C. Then, PBS containing […] propidium iodide (PI) (Sigma) was directly added, the cells were mixed gently, and incubated for 5–10 min at room temperature in the dark. Finally, the cell-cycle phase distribution was analyzed in three different experiments using flow cytometry (BD Biosciences, San Diego, CA, USA). At least 10,000 events/sample were acquired. Assays were conducted three times independently. The data was analyzed by FlowJo V10 software. For synchronous cell cycle analysis, cells were synchronized to G1/S boundary by a double-thymidine blockade ([Liu et al., 2015]), and then exposed to Z0933M for time-dependent or dose-dependent analysis. […] Cell cycle distribution was analyzed by flow cytometry (BD Biosciences, San Diego, CA, USA) and FlowJo V10 software.
On the technique in general: Flow cytometry measures light scatter and fluorescence of single cells or particles in a stream.

In the next experiment the target is T4, Skp1^WT (Homo sapiens, UniProt P63208).
T4 construct: recombinantly purify intact (Skp1^WT) and truncate (ΔSkp1^1−140; lacking H8-helix) forms of Skp1; His6; made in house; host or cells: Escherichia coli BL21 (DE3)
Description: Thermal shift assay (TSA). The settings on record: protein 8 μM. The format is binding. From the text: (§1) TSA, also known as differential scanning fluorimetry (DSF), is used to identify the contribution of a ligand binding to an unfolding protein as a function of temperature. The detection involves increase in fluorescence of a fluorophore SYPRO Orange (Invitrogen) upon binding to the hydrophobic regions of the gradually unfolded protein. A ligand stabilizing a protein may increase the melting temperature (Tm). To detect the binding of Z0933M with Skp1, a gradient TSA was used, in which, protein samples were mixed with appropriate concentrations of ligand over the range of several folds. The protein (Skp1^WT or ΔSkp1^1−140) was kept constant at 8 μM, and the compound concentration was varied from 50 μM to 600 μM. For comparison with 6-OAP, a single concentration of 400 μM was tested with both Skp1^WT and ΔSkp1^1−140. All reactions were set up in final volume of 10 μL in 96-well plate with 1x SYPRO Orange (Invitrogen) and incubated with compounds on ice for 30 min. According to the experimental protocol, samples were heated at 0.5°C per minute, ranging from 30 to 90°C, and the fluorescence intensity was measured at the interval of 0.5°C. Appropriate buffer blank and protein-only controls were kept, and the shift in Tm was measured as ΔTm = Tm (ligand-protein) ‒ (protein-only). The resultant ΔTm values were plotted by using GraphPad Prism® v6.0 (San Diego, CA) and ORIGIN Lab softwares.

Experiment [6] has as its target T1, ΔSkp1^1−140. As to the kind of experiment: Thermal shift assay (TSA). Type of experiment: binding. To be noted: protein 8 μM.
From the text: as §1

The next experiment relates to mycobacterial. As to the kind of experiment: Anti-mycobacterial evaluation. The format is cell-based.
For another experiment, the target named is T5, Skp1^F139A (Homo sapiens, UniProt P63208, F139A).
T5 construct: His6; made in house; host or cells: Escherichia coli BL21 (DE3)
Description: LC-MS/MS analysis of in vitro binding. The settings on record: Skp1^F139A mutant, overnight incubation.

In experiment [7] the target is T1, ΔSkp1^1−140. Description: LC-MS/MS analysis of in vitro binding. To be noted: ΔSkp1^1−140, overnight incubation.

T4 sequence (P63208 whole entry, the tested form may be a part): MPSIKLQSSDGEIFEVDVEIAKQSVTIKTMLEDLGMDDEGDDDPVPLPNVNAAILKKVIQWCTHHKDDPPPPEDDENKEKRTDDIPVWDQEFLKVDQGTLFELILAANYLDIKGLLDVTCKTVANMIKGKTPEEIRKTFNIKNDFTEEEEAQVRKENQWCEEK
T1 sequence (P63208 1-140, stated change not applied): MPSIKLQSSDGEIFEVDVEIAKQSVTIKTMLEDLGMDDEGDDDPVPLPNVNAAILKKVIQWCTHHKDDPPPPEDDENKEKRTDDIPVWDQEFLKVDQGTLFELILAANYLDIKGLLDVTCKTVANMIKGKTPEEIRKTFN
T3 sequence (P63208 whole entry): as the sequence (P63208 whole entry, the tested form may be a part) above
T2 sequence (P63208 whole entry): as the sequence (P63208 whole entry, the tested form may be a part) above
T5 sequence (P63208 whole entry F139A): as the sequence (P63208 whole entry, the tested form may be a part) above, with F139A counted along it

Regarding `Nc1ccc(-c2nc3ccccc3c3[nH]c4ccccc4c23)cc1` [Z0933M], the “binding by LC-MS/MS” value is recorded as “robust binding” in the experiment on Skp1-ΔF-box complex, “markedly reduced” at Skp1^F139A and “robust binding” on ΔSkp1^1−140 [7]. Moreover, the “anti-proliferative potency relative to 6-OAP” value with A549 cells [1] (A549 cells, 48 h, ratio of EC50 values) is listed as “approximately 24 times”. Further, the concentration giving a half-maximal response (EC50) (in general, the concentration that produces a half-maximal response) with A549 cells [1] (A549, Lung cancer, 48 h, read-out: Anti-proliferative EC50) worked out at 580 ± 70 nM; in the experiment with A549 cells [1] (A549 cells, 72 hrs, read-out: EC50) it was 99 ± 1 nM; in the experiment on A549 cells [1] (A549 cells, 96 hrs, read-out: EC50), 66 ± 18 nM. Also, the equilibrium dissociation constant (Kd) (in general, a measure of binding affinity in units of concentration) at ΔSkp1^1−140 [2] was determined as 40.4 ± 8.2 nM. For the same molecule, the “inhibition of Skp1-Skp2 interaction (FRET ratio)” value in experiment [3] is listed as “significant inhibition”. Further, in experiment [4], the “inhibition of Skp1-NIPA interaction (FRET ratio)” value is recorded as “significant inhibition”. The cell cycle effect result in the experiment on A549 cells [5] is “complete G2/M arrest”. The ΔTm – broadly, the change in melting temperature against a reference sample – at 50 µM on Skp1^WT (50 μM compound) came to 0.3 °C; on ΔSkp1^1−140 [6] (50 μM compound), 0.9 °C. Also, the shift in melting temperature (ΔTm) at 100 µM at Skp1^WT (100 μM compound) and on ΔSkp1^1−140 [6] (100 μM compound) was 0.6 °C each time. The ΔTm at 200 µM on Skp1^WT (200 μM compound) stood at 2.4 °C; at ΔSkp1^1−140 [6] (200 μM compound), 2.1 °C. The ΔTm at 400 µM on Skp1^WT (400 μM compound) is 7.8 °C; at ΔSkp1^1−140 [6] (400 μM compound), 10.8 °C. Also, the ΔTm at 600 µM amounted to 10.5 °C on Skp1^WT (600 μM compound) and 11.1 °C at ΔSkp1^1−140 [6] (600 μM compound). In addition, the minimal inhibitory concentration (MIC) (as a rule, the lowest concentration found to suppress growth) in the experiment with mycobacterial was > 30 µM.
